Active and inactive are the calls of the source. The calls are words filed in the database; no cut-off is given here.
Assays:
Format in all cases: functional, organism-based
Staphylococcus aureus [1] = test: Antimicrobial activity against Staphylococcus aureus assessed as visible growth at 0.25 ug/ml after 24 hrs in presence of 20 uM paraquat
Staphylococcus aureus [2] = test: Antimicrobial activity against Staphylococcus aureus assessed as visible growth at 0.45 ug/ml after 24 hrs in presence of 20 uM paraquat
Staphylococcus aureus [3] = test: Antimicrobial activity against Staphylococcus aureus assessed as visible growth at 0.75 ug/ml after 24 hrs
Staphylococcus aureus [4] = test: Antimicrobial activity against Staphylococcus aureus assessed as visible growth at 0.75 ug/ml after 24 hrs in presence of 20 uM paraquat
Staphylococcus aureus [5] = test: Antimicrobial activity against Staphylococcus aureus expressing mgrA C12S mutant gene assessed as visible growth at 0.25 ug/ml after 24 hrs
Staphylococcus aureus [6] = test: Antimicrobial activity against Staphylococcus aureus expressing mgrA C12S mutant gene assessed as visible growth at 0.65 ug/ml after 24 hrs
Staphylococcus aureus [7] = test: Antimicrobial activity against Staphylococcus aureus expressing mgrA C12S mutant gene assessed as visible growth at 0.65 ug/ml after 24 hrs in presence of 20 uM paraquat
Staphylococcus aureus [8] = test: Antimicrobial activity against Staphylococcus aureus expressing mgrA C12S mutant gene harboring plasmid Pyj335 assessed as visible growth at 0.20 ug/ml after 24 hrs in presence of 25 uM paraquat
Staphylococcus aureus [9] = test: Antimicrobial activity against Staphylococcus aureus expressing mgrA C12S mutant gene harboring plasmid Pyj335 assessed as visible growth at 0.25 ug/ml after 24 hrs
Staphylococcus aureus [10] = test: Antimicrobial activity against Staphylococcus aureus expressing mgrA C12S mutant gene harboring plasmid Pyj335 assessed as visible growth at 0.45 ug/ml after 24 hrs
Staphylococcus aureus [11] = test: Antimicrobial activity against Staphylococcus aureus expressing mgrA C12S mutant gene harboring plasmid Pyj335 assessed as visible growth at 0.45 ug/ml after 24 hrs in presence of 20 uM paraquat
Staphylococcus aureus [12] = test: Antimicrobial activity against Staphylococcus aureus expressing mgrA C12S mutant gene harboring plasmid Pyj335 assessed as visible growth at 0.65 ug/ml after 24 hrs in presence of 20 uM paraquat
Staphylococcus aureus [13] = test: Antimicrobial activity against Staphylococcus aureus expressing mgrA C12S mutant gene harboring plasmid Pyj335 assessed as visible growth at 0.75 ug/ml after 24 hrs in presence of 20 uM paraquat
Staphylococcus aureus [14] = test: Antimicrobial activity against Staphylococcus aureus expressing mgrA C12S mutant gene harboring Pyj335-His-mgrA assessed as visible growth at 0.25 ug/ml after 24 hrs in presence of 20 uM paraquat
Staphylococcus aureus [15] = test: Antimicrobial activity against Staphylococcus aureus expressing mgrA C12S mutant gene harboring Pyj335-His-mgrA assessed as visible growth at 0.35 ug/ml after 24 hrs in presence of 20 uM paraquat
Staphylococcus aureus [16] = test: Antimicrobial activity against Staphylococcus aureus expressing mgrA C12S mutant gene harboring plasmid Pyj335-His-mgrA assessed as visible growth at 0.45 ug/ml after 24 hrs in presence of 20 uM paraquat
Staphylococcus aureus [17] = test: Antimicrobial activity against Staphylococcus aureus expressing mgrA C12S mutant gene harboring Pyj335-His-mgrA assessed as visible growth at 0.55 ug/ml after 24 hrs in presence of 20 uM paraquat
Staphylococcus aureus [18] = test: Antimicrobial activity against Staphylococcus aureus expressing mgrA C12S mutant gene harboring Pyj335-His-mgrA assessed as visible growth at 0.65 ug/ml after 24 hrs
Staphylococcus aureus [19] = test: Antimicrobial activity against Staphylococcus aureus expressing mgrA C12S mutant gene harboring Pyj335-His-mgrA assessed as visible growth at 0.75 ug/ml after 24 hrs
Staphylococcus aureus [20] = test: Antimicrobial activity against Staphylococcus aureus assessed as visible growth at 0.6 ug/ml after 24 hrs in presence of 20 uM paraquat
Staphylococcus aureus [21] = test: Antimicrobial activity against Staphylococcus aureus assessed as visible growth at 1 ug/ml after 24 hrs
Staphylococcus aureus [22] = test: Antimicrobial activity against Staphylococcus aureus assessed as visible growth at 1.4 ug/ml after 24 hrs in presence of 20 uM paraquat
Staphylococcus aureus [23] = test: Antimicrobial activity against Staphylococcus aureus expressing mgrA C12S mutant gene assessed as visible growth at 0.6 ug/ml after 24 hrs
Staphylococcus aureus [24] = test: Antimicrobial activity against Staphylococcus aureus expressing mgrA C12S mutant gene assessed as visible growth at 1 ug/ml after 24 hrs in presence of 20 uM paraquat
Staphylococcus aureus [25] = test: Antimicrobial activity against Staphylococcus aureus expressing mgrA C12S mutant gene assessed as visible growth at 1.4 ug/ml after 24 hrs in presence of 20 uM paraquat
Staphylococcus aureus [26] = test: Antimicrobial activity against Staphylococcus aureus expressing mgrA C12S mutant gene harboring Pyj335-His-mgrA C12S assessed as visible growth at 1.1 ug/ml after 24 hrs in presence of 100 uM hydrogen peroxide
Staphylococcus aureus [27] = test: Antimicrobial activity against Staphylococcus aureus expressing mgrA C12S mutant gene harboring plasmid Pyj335-His-mgrA assessed as visible growth at 1.1 ug/ml after 24 hrs in presence of 100 uM hydrogen peroxide
Staphylococcus aureus [28] = test: Antimicrobial activity against Staphylococcus aureus expressing mgrAC12S mutant gene assessed as visible growth at 1.1 ug/ml after 24 hrs in presence of 100 uM hydrogen peroxide
Staphylococcus aureus [29] = test: Antimicrobial activity against Staphylococcus aureus assessed as visible growth at 1.1 ug/ml after 24 hrs
Staphylococcus aureus [30] = test: Antimicrobial activity against Staphylococcus aureus expressing mgrA C12S mutant gene assessed as visible growth at 1.1 ug/ml after 24 hrs in presence of 25 uM paraquat
Staphylococcus aureus [31] = test: Antimicrobial activity against Staphylococcus aureus expressing mgrA C12S mutant gene assessed as visible growth at 1.8 ug/ml after 24 hrs
Staphylococcus aureus [32] = test: Antimicrobial activity against Staphylococcus aureus expressing mgrA C12S mutant gene assessed as visible growth at 2.2 ug/ml after 24 hrs
Staphylococcus aureus [33] = test: Antimicrobial activity against Staphylococcus aureus expressing mgrA C12S mutant gene assessed as visible growth at 2.6 ug/ml after 24 hrs in presence of 20 uM paraquat
Staphylococcus aureus [34] = test: Antimicrobial activity against Staphylococcus aureus expressing mgrA C12S mutant gene harboring plasmid Pyj335 assessed as visible growth at 1.4 ug/ml after 24 hrs
Staphylococcus aureus [35] = test: Antimicrobial activity against Staphylococcus aureus expressing mgrA C12S mutant gene harboring plasmid Pyj335 assessed as visible growth at 1.4 ug/ml after 24 hrs in presence of 20 uM paraquat
Staphylococcus aureus [36] = test: Antimicrobial activity against Staphylococcus aureus expressing mgrA C12S mutant gene harboring plasmid Pyj335 assessed as visible growth at 2.2 ug/ml after 24 hrs in presence of 20 uM paraquat
Staphylococcus aureus [37] = test: Antimicrobial activity against Staphylococcus aureus expressing mgrA C12S mutant gene harboring Pyj335-His-mgrA assessed as visible growth at 0.6 ug/ml after 24 hrs
Staphylococcus aureus [38] = test: Antimicrobial activity against Staphylococcus aureus expressing mgrA C12S mutant gene harboring Pyj335-His-mgrA assessed as visible growth at 1.4 ug/ml after 24 hrs in presence of 20 uM paraquat

O=C(O)c1cn(C2CC2)c2cc(N3CCNCC3)c(F)cc2c1=O [CIPROFLOXACIN]
Activity (Staphylococcus aureus [1]): inactive
Activity (Staphylococcus aureus [2]): inactive
Activity (Staphylococcus aureus [3]): Active
Activity (Staphylococcus aureus [4]): Active
Activity (Staphylococcus aureus [5]): inactive
Activity (Staphylococcus aureus [6]): inactive
Activity (Staphylococcus aureus [7]): inactive
Activity (Staphylococcus aureus [8]): inactive
Activity (Staphylococcus aureus [9]): inactive
Activity (Staphylococcus aureus [10]): inactive
Activity (Staphylococcus aureus [11]): inactive
Activity (Staphylococcus aureus [12]): inactive
Activity (Staphylococcus aureus [13]): Active
Activity (Staphylococcus aureus [14]): inactive
Activity (Staphylococcus aureus [15]): inactive
Activity (Staphylococcus aureus [16]): inactive
Activity (Staphylococcus aureus [17]): inactive
Activity (Staphylococcus aureus [18]): Active
Activity (Staphylococcus aureus [19]): Active

CN[C@H](CC(C)C)C(=O)N[C@H]1C(=O)N[C@@H](CC(N)=O)C(=O)N[C@H]2C(=O)N[C@H]3C(=O)N[C@H](C(=O)N[C@H](C(=O)O)c4cc(O)cc(O)c4-c4cc3ccc4O)[C@H](O)c3ccc(c(Cl)c3)Oc3cc2cc(c3O[C@@H]2O[C@H](CO)[C@@H](O)[C@H](O)[C@H]2O[C@H]2C[C@](C)(N)[C@H](O)[C@H](C)O2)Oc2ccc(cc2Cl)[C@H]1O [VANCOMYCIN]
Activity (Staphylococcus aureus [20]): inactive
Activity (Staphylococcus aureus [21]): inactive
Activity (Staphylococcus aureus [22]): inactive
Activity (Staphylococcus aureus [23]): inactive
Activity (Staphylococcus aureus [24]): inactive
Activity (Staphylococcus aureus [25]): inactive
Activity (Staphylococcus aureus [26]): Active
Activity (Staphylococcus aureus [27]): Active
Activity (Staphylococcus aureus [28]): inactive
Activity (Staphylococcus aureus [29]): Active
Activity (Staphylococcus aureus [30]): inactive
Activity (Staphylococcus aureus [31]): inactive
Activity (Staphylococcus aureus [32]): inactive
Activity (Staphylococcus aureus [33]): Active
Activity (Staphylococcus aureus [34]): inactive
Activity (Staphylococcus aureus [35]): inactive
Activity (Staphylococcus aureus [36]): inactive
Activity (Staphylococcus aureus [37]): inactive
Activity (Staphylococcus aureus [38]): inactive
